Assay [1] deals with neuroblastoma cell lines. The settings on record: cited from earlier work.
The test system of assay [2] is D283Med. Briefly: Side population (Hoechst 33342 excretion) flow cytometry. The format is cell-based. Here is the method:
(§1) The ability to excrete Hoechst dye, which defines SP (also known as “side population”) in flow cytometric analyses, is another marker of tumor-initiating CSC in the blood and brain (7, 8, 20). SP was therefore analyzed to obtain a second measure of the effects of Notch on CSC.
(§2) Flow cytometric analysis of S-phase fraction and cell cycle kinetics was performed using a FACSCalibur (Becton Dickinson, San Jose, Calif.) with CELL Quest, version 3.3 software (15). CD133 studies were performed using the same instrument, with antibodies from Miltenyi (Miltenyi Biotec, Auburn, Calif.) according to the manufacturer's instructions. […] Prior to analysis, cells were washed and resuspended in 2 μg/ml PI (Sigma, St. Louis, Mo.). […] To ensure proper identification of SP cells, cells were incubated as above with the addition of 50 μM verapamil (Sigma).

The subject of assay [3] is D425Med. The assay is described as above. The format is cell-based. How it is done: as §1, §2
In assay [4] the test system is DAOY. Described as above. The format is cell-based. Here is the method:
as §1, §2

Data on two molecules can be found in US20140227173A1, “CANCER TREATMENT WITH GAMMA-SECRETASE INHIBITORS” (The Johns Hopkins University, priority 2006, published 2014).

Molecules are shown by their SMILES.

For `O=C1c2c(O)ccc(O)c2C(=O)c2c(NCCNCCO)ccc(NCCNCCO)c21` [Mitoxantrone], the side population entry in assay [1] is reported as “increases the side population”.
For `COc1ccc(CCN(C)CCCC(C#N)(c2ccc(OC)c(OC)c2)C(C)C)cc1OC` (stereo not shown) [verapamil, reference compound], the side population entry in assay [2] and in assay [3] was “ablated” each time. For the same molecule, in assay [4], the “Hoechst excretion (side population)” value is “abolished Hoechst excretion”.
